Reference: patent publication US6861235B1, “Method for controlling target microorganism” (priority 1998, dated 2005)
Entries after “also recorded” stand apart in the source; their conditions may differ. Read-outs that look alike come from different tables or passages of the source. Peptide text beside a SMILES is read from it.

How the values were obtained:
NKR strain [1] = assay type: cell-based, Burkholderia sp. N16-1 strain; conditions: for cell count of the NKR strain in the soil vs no addition: pH-adjusted SB soil
NKR strain [2] = assay type: cell-based, Burkholderia sp. N16-1 strain
[3] = system: R. solanacearum OE1-1 strain; assay type: in vivo, tomato; conditions: 500 ppm D-serine-added contaminated soil
[4] = system: Ralstonia solanacearum OE1-1 strain; assay type: cell-based; conditions: for cell count of the OE1-1 strain vs 0 ppm: Example 9; for control of R. solanacearum OE1-1 strain: Examples 9 and 10 summary, addition of 500 ppm or more
[5] = system: total cell count in the soil; assay type: cell-based
[6] = system: total cell count in the soil; assay: Total cell count in soil inoculated with the NKR strain (DNB agar medium); assay type: cell-based; conditions: Example 3; SB soil pH 7.0; sucrose solution with M9 medium (N, P and C source) added on day 13
[7] = Example 5, 5000 ppm added after 5 days at 20° C.
[8] = Biolog GN plate, compounds in parentheses showed slight color development
[9] = Example 7, SB soil, 5000 ppm substrate, D-serine metabolites

Row | Compound | assimilation by the NKR strain (color development of an oxidation-reduction indicator) (NKR strain [2]; [8]) | further results
1 | NC(CO)C(=O)O (racemic) [DL-serine] | – | cell count of the NKR strain in the soil vs no addition (NKR strain [1]; [7]): the effect of cell count control can be observed though the degree of reduction is small
2 | CC(O)C(C)O (stereo not shown) [2,3-butanediol] | no color development | –
3 | O=P(O)(O)OCC(O)CO [D, L-α-glycerol phosphate] | no color development | –
4 | N[C@H](CS)C(=O)O [D-cysteine] | – | cell count of the NKR strain vs control section (NKR strain [1]; [9]): markedly declined; also recorded: exhibited control effects
5 | O=C(CO)[C@H](O)[C@H](O)[C@H](O)CO [D-piscose] | slight color development | –
6 | OC[C@H]1O[C@H](OC[C@H]2O[C@H](O[C@]3(CO)O[C@H](CO)[C@@H](O)[C@@H]3O)[C@H](O)[C@@H](O)[C@@H]2O)[C@H](O)[C@@H](O)[C@H]1O [D-raffinose] | no color development | –
7 | O=C(O)[C@@H](O)[C@@H](O)[C@H](O)[C@@H](O)C(=O)O [D-saccharic acid] | slight color development | –
8 | NC(CO)C(=O)O [D-serine, 2-amino-3-hydroxypropionic acid] | does not assimilate; also recorded: no color development | germination of tomato seeds ([3]; day 4 after sowing): germination of the tomato seeds was observed; growth of young tomato seedlings ([3]; no-addition seedlings all died except one by day 10): grew normally; cell count of the NKR strain in the soil vs no addition (NKR strain [1]; Example 4, 0.5% D-serine added after 2 days culture at 30° C.): markedly reduced; also recorded: markedly declined; also recorded: very effective; cell count of the NKR strain in the soil vs no addition (NKR strain [1]; [7]): markedly declined; also recorded: very effective; cell count of the NKR strain vs control section (NKR strain [1]; Example 6, 5000 ppm, Kuroboku (black) soil A (field soil)): no effects were observed; cell count of the NKR strain vs control section (NKR strain [1]; Example 6, 5000 ppm, Kuroboku (black) soil B, sandy soils A, B, C, D (all soils excluding Kuroboku soil A)): markedly declined; cell count of the OE1-1 strain vs control ([4]; Example 8, field soil, 5000 ppm): declined markedly; cell count of the OE1-1 strain vs 0 ppm ([4]; field soil, D-serine 500, 1000, 2000 or 5000 ppm): a reduction in the cell count; control of R. solanacearum OE1-1 strain [4]: works to control; total cell count in the soil [5]: almost no changes were observed
9 | OC[C@H]1O[C@H](O[C@H]2O[C@H](CO)[C@@H](O)[C@H](O)[C@H]2O)[C@H](O)[C@@H](O)[C@@H]1O [D-trehalose] | slight color development | –
10 | C[C@@H](N)C(=O)O [D-α-alanine] | no color development | cell count of the NKR strain vs control section (NKR strain [1]; [9]): markedly declined; also recorded: exhibited control effects
11 | N[C@@H](CC(=O)O)C(=O)O [L-aspartic acid] | slight color development | –
12 | NCCC[C@H](N)C(=O)O [L-omithine] | slight color development | –
13 | N[C@@H](CO)C(=O)O [L-serine] | slight color development | cell count of the NKR strain in the soil vs no addition (NKR strain [1]; [7]): remained almost constant; also recorded: almost no effect
14 | C[C@@H](O)[C@H](N)C(=O)O [L-threonine] | slight color development | –
15 | CC(=O)O [acetic acid] | no color development | –
16 | C[C@H](N)C(N)=O [alanine amide] | slight color development | –
17 | O=C[C@H](O)[C@@H](O)[C@H](O[C@@H]1O[C@H](CO)[C@@H](O)[C@H](O)[C@H]1O)[C@H](O)CO [cellobiose] | slight color development | –
18 | OC[C@@H](O)[C@@H](O)CO [erythritol] | no color development | –
19 | NCCO [ethanolamine] | slight color development | cell count of the NKR strain vs control section (NKR strain [1]; [9]): markedly declined; also recorded: exhibited control effects; cell count of the OE1-1 strain vs 0 ppm ([4]; ethanolamine 500 ppm sequentially added or 1000 ppm or greater): decrease in the cell counts; cell count of the OE1-1 strain vs 0 ppm ([4]; one-time addition of 500 ppm ethanolamine): did not exhibit sufficient effects; control of R. solanacearum OE1-1 strain [4]: works to control; total cell count in the soil [5]: remained constant
20 | O=P(O)(O)O[C@H]1O[C@H](CO)[C@@H](O)[C@H](O)[C@H]1O [glucose-1-phosphate] | no color development | –
21 | O=C[C@H](O)[C@@H](O)[C@H](O)[C@H](O)COP(=O)(O)O [glucose-6-phosphate] | slight color development | –
22 | NC(=O)[C@@H](O)[C@@H](O)[C@H](O)[C@@H](O)C=O [glucuronamide] | slight color development | –
23 | NCC(=O)N[C@@H](CC(=O)O)C(=O)O [glycyl-L-aspartic acid] (H-Gly-Asp-OH) | no color development | –
24 | C=C(CC(=O)O)C(=O)O [itaconic acid] | no color development | –

Row | Compound | assimilation by the NKR strain (color development of an oxidation-reduction indicator) (NKR strain [2]; [8]) | further results
25 | O=C(O)CC(=O)O [malonic acid] | slight color development | –
26 | OC[C@H]1O[C@H](O[C@H]2[C@H](O)[C@@H](O)[C@H](O)O[C@@H]2CO)[C@H](O)[C@@H](O)[C@@H]1O [maltose] | no color development | –
27 | NCCc1ccccc1 [phenylethylamine] | no color development | –
28 | CCC(=O)O [propionic acid] | no color development | –
29 | NCCCCN [putrescine] | slight color development | –
30 | CC(=O)C(=O)O [pyruvic acid] | – | cell count of the NKR strain vs control section (NKR strain [1]; [9]): markedly declined; also recorded: exhibited control effects
31 | COc1ccc2nccc(C(=O)O)c2c1 [quininic acid] | slight color development | –
32 | O=C(O)CCCCCCCCC(=O)O [sebacic acid] | slight color development | –
33 | OC[C@H]1O[C@@](CO)(O[C@H]2O[C@H](CO)[C@@H](O)[C@H](O)[C@H]2O)[C@@H](O)[C@@H]1O [sucrose] | does not assimilate; also recorded: no color development | cell count of the NKR strain in the soil (NKR strain [1]; Example 3, SB soil pH 7.0, sucrose solution with M9 medium added on day 13 after inoculation): transiently increased but then starts to decline; also recorded: after a transient increase, decreased slightly; total cell counts in the soil [6]: increases in the total cell counts were observed
34 | Cc1cn([C@H]2C[C@H](O)[C@@H](CO)O2)c(=O)[nH]c1=O [thymidine] | no color development | –
35 | O=C(CO)[C@@H](O[C@H]1O[C@H](CO)[C@@H](O)[C@H](O)[C@H]1O)[C@H](O)[C@H](O)CO [turanose] | no color development | –
36 | O=c1ccn([C@@H]2O[C@H](CO)[C@@H](O)[C@H]2O)c(=O)[nH]1 [uridine] | slight color development | –
37 | O=C(O)/C=C/c1c[nH]cn1 [urocanic acid] | slight color development | –
38 | OC[C@@H](O)[C@H](O)[C@@H](O)CO [xylitol] | no color development | –
39 | OC[C@H]1O[C@@H](O[C@H]2[C@H](O)[C@@H](O)[C@@H](O)O[C@@H]2CO)[C@H](O)[C@@H](O)[C@H]1O [α-D-lactose] | slight color development | –
40 | CCC(O)C(=O)O (stereo not drawn) [α-hydroxybutyric acid] | slight color development | –
41 | CCC(=O)C(=O)O [α-ketobutyric acid] | slight color development | –
42 | O=C(O)CCC(=O)C(=O)O [α-ketoglutaric acid] | slight color development | –
43 | COC1OC(CO)C(O)C(O)C1O [β-methyl-D-glucose] | no color development | –
44 | O=C(O)CCCO [γ-hydroxybutyric acid] | no color development | –
45 | dextrin | no color development | –
46 | gentiobiose | – | assimilation by the NKR strain (color development of an oxidation-reduction indicator) (NKR strain [2]): no color development
47 | glycogen | no color development | –
48 | α-cyclodexrin | no color development | –
